Measurements from ChEMBL document CHEMBL4043119, “Synthesis and biological evaluation in vitro and in mammalian cells of new heteroaryl carboxyamides as HIV-protease inhibitors” (Bioorg Med Chem, 2017).
Calls of active or inactive are those of the source. The rule behind the calls is not given here.

Experiments:
[1] = tested on: Human immunodeficiency virus 1; assay: Inhibition of recombinant HIV-1 GFP-tagged protease expressed in HEK293 cells assessed as increase in GFP-tagged protease accumulation at 10 to 30 uM after 24 hrs by flow cytometric analysis; format: cell-based
[2] = Inhibition of wild-type recombinant HIV-1 protease expressed in Escherichia coli using Abz-Thr-Ile-Nle-Phe(p-NO2)-Gln-Arg-NH2 as substrate by fluorescence assay; design: species or system Human immunodeficiency virus 1
HEK293 = assay: (§1) Cytotoxicity against HEK293 cells after 24 hrs by MTT assay; format: cell-based; details: human, hek293, 24 h
[3] = as §1; format: cell-based; details: human, HEK293 cells
[4] = tested on: Human immunodeficiency virus 1; assay: Inhibition of recombinant HIV-1 GFP-tagged protease expressed in HEK293 cells assessed as increase in GFP-tagged protease accumulation at 10 uM after 24 hrs by Western blot analysis; format: cell-based
[5] = tested on: Human immunodeficiency virus 1; assay: Inhibition of recombinant HIV-1 GFP-tagged protease expressed in HEK293 cells assessed as increase in GFP-tagged protease accumulation after 24 hrs by fluorescence microscopic analysis; format: cell-based
[6] = tested on: Human immunodeficiency virus 1; assay: Inhibition of recombinant HIV-1 GFP-tagged protease expressed in HEK293 cells assessed as increase in GFP-tagged protease accumulation at 10 uM after 24 hrs by flow cytometric analysis; format: cell-based

| IC50 [2] [nM] | SMILES | inhibition [1] | Activity (HEK293) | CC50 at 24 h [3] [µM] | Inhibition (qualitative activity call) [4] | inhibition [5] | inhibition [6] |
| --- | --- | --- | --- | --- | --- | --- | --- |
| 2 | COc1ccc(S(=O)(=O)N(CC(C)C)C[C@@H](O)[C@H](Cc2ccccc2)NC(=O)c2ccc3[nH]ccc3c2)cc1OC | Active | Dose-dependent effect | > 200 | Active | Active |  |
| 4000 | COc1ccc(S(=O)(=O)N(CC(C)C)C[C@@H](O)CNC(=O)c2ccc3[nH]ccc3c2)cc1OC |  |  |  |  |  |  |
| 13 | COc1ccc(S(=O)(=O)N(CC(C)C)C[C@@H](O)[C@H](Cc2ccccc2)NC(=O)c2ccc3sccc3c2)cc1OC | Active | Dose-dependent effect | > 200 | Active | Active |  |
|  | CC(C)CN(C[C@@H](O)[C@H](Cc1ccccc1)NC(=O)O[C@H]1CO[C@H]2OCC[C@H]21)S(=O)(=O)c1ccc(N)cc1 |  |  |  | Active | Active | Active |
| 1.1 | COc1ccc(S(=O)(=O)N(CC(C)C)C[C@@H](O)[C@H](Cc2ccccc2)NC(=O)c2ccc3occc3c2)cc1OC | Active | Dose-dependent effect | > 200 | Active | Active |  |
| 1 | COc1ccc(S(=O)(=O)N(CC(C)C)C[C@@H](O)CNC(=O)c2ccc3occc3c2)cc1OC |  |  |  |  |  |  |
| 15 | COc1ccc(S(=O)(=O)N(CC(C)C)C[C@@H](O)CNC(=O)c2ccc3sccc3c2)cc1OC |  |  |  |  |  |  |
